According to ChEMBL document CHEMBL1126411, “Synthesis and HIV activity of phosphonate isosteres of D4T monophosphate” (Bioorg Med Chem Lett, 1992):

System: MT4
Experiment: Concentration required for the inhibition of HIV replication by 50% in MT-4 cells
Assay type: functional, cell-based
Details: Homo sapiens

Structure (SMILES)	IC50 [µM]
Cc1cn([C@H]2C=C[C@@H](OCP(=O)(O)O)C2)c(=O)[nH]c1=O	> 1000
Cc1cn([C@H]2C=C[C@@H](CO)O2)c(=O)[nH]c1=O [STAVUDINE]	1.2
Cc1cn([C@H]2C=C[C@@H](OCP(=O)(O)O)O2)c(=O)[nH]c1=O	1.3
Cc1cn([C@H]2C=C[C@@H](CCP(=O)(O)O)O2)c(=O)[nH]c1=O	> 1000
